Source: the NIST ThermoML archive (doi:10.1021/acs.jced.8b00070)
± gives the expanded uncertainty stated by the source.

Conditions: 101.3 kPa, Liquid, Vibrating tube method

mass density (323.15 K): 988 ± 0.2 kg/m3 | mass density (328.15 K): 985.7 ± 0.2 kg/m3 | mass density (333.15 K): 983.2 ± 0.2 kg/m3
SMILES: O [water]
